Results: paper PMC11645656, “MRGPRX4 mediates phospho-drug associated pruritus in a humanized mouse model” (Science translational medicine, 2024)
Where “and” joins values, the source holds several entries; their conditions need not be identical. Equal values may be shown once.

Experiments:
[1] = IV, clinical trials; ref New Drug Application: 020450; cited from earlier work
[2] = target: MRGPRX4 WT (S83) (Homo sapiens, UniProt Q96LA9, L83S); assay: PRESTO-Tango β-arrestin recruitment assay, HTLA cells stably expressing WT (S83) MRGPRX4; format: cell-based; design: expressed in transfected cells; conditions: for PRESTO-Tango response (fig. S1), single replicate: HTLA::MRGPRX4; for fig. S7 response (raw signal), concentration-response: WT, single replicate
Chain of MRGPRX4 WT (S83) (Q96LA9 whole entry L83S, the tested form may be a part): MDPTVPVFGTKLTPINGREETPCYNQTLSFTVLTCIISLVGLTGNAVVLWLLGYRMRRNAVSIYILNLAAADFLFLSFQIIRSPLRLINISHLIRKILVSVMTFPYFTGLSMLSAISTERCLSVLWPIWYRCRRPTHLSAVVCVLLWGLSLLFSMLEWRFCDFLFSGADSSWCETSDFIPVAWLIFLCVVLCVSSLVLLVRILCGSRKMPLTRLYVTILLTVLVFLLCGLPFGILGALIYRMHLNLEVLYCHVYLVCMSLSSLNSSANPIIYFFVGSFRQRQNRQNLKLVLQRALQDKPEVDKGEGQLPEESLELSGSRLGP
Protocol: HTLA cells, a cell line derived from HEK293 and engineered to stably express a tTA-dependent luciferase reporter and a β-arrestin2-TEV fusion gene, were generously provided by Richard Axel's laboratory. HTLA cells were cultured in growth medium containing 2 μg/ml puromycin and 100 μg/ml hygromycin B in 5% CO2 at 37 °C. Stably MRGPRX4-expressing HTLA cells were generated by transfecting pcDNA3.1(+)-Zeo containing MRGPRX4-Tango construct (either with WT or S83L mutant sequence) into HTLA cells with Lipofectamine 3000 and selecting the successful transfected clones with Zeocin.
HTLA cells stably expressing either WT or S83L MRGPRX4 were seeded in PDL-coated 96-well white clear bottom cell culture plates with DMEM containing 10% FBS, at a density of 35,000 cells per well and were allowed to attach to the bottom of the wells overnight. The next day, growth medium was replaced with 100 μl of serum-free medium containing the tested drugs at various concentrations, and the cells were then incubated at 37°C for 24 h. On the following day, media with drug solutions was removed and 50 μl per well of Bright-Glo™ Reagent from Bright-Glo™ Luciferase Assay System (Promega) was loaded. The plate was incubated at room temperature in the dark for 5 min, and the relative luminescence units were measured using the Flexstation-3 instrument with SoftMax®Pro 7.1 software (Molecular Devices). Dose response curves and EC50s were analyzed as described above.
Data are from at least two independent experiments, each performed in
triplicate, and are depicted as mean ± SEM.
arrestin2-TEV fusion gene and a tTA -dependent luciferase reporter.

[3] = target: T1, MRGPRX4 (S83) (Homo sapiens, UniProt Q96LA9, L83S); assay: EC50 determination, intracellular calcium mobilization in MRGPRX4 stably expressed HEK293 cells (FLIPR Calcium 5, Flexstation-3); format: cell-based; design: Fig. 1D dose-response, calcium mobilization response (individual replicate) / calcium mobilization response (Fig. 1D dose-response raw data): unit not given here; conditions: for calcium mobilization response (Fig. 1D dose-response raw data): individual replicate values
T1 construct: expressed in transfected cells
T1 sequence (Q96LA9 whole entry L83S): as the sequence (Q96LA9 whole entry L83S, the tested form may be a part) above
How it was run: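 HEK293 cells stably expressing receptor (parental HEK293 alongside) loaded with Calcium 5 dye in HBSS/20 mM HEPES, pH 7.4, 1 h at 37 °C, then compounds added. Response = peak minus pre-drug baseline, triplicates averaged; EC50 from 4PL fit.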

[4] = system: HTLA cells; assay: PRESTO-Tango β-arrestin recruitment assay, parental HTLA cells without MRGPRX4 (control, fig. S1); format: cell-based
Source text: Supplement NIHMS2038790-supplement-table.xlsx, sheet "fig. S1" | column: Concentration (M)

[5] = system: NP2-X4+ mice (MRGPRX4 in Mrgpra3+ NP2 sensory neurons); assay: Itch behavioral study (scratching bouts after subcutaneous nape injection) in NP2-X4+ mice; format: in vivo, mouse

O=C1NC(c2ccccc2)(c2ccccc2)C(=O)N1COP(=O)(O)O [Fosphenytoin]
Patients who reported itch [1]: 48.9% | PRESTO-Tango response (fig. S1), single replicate ([2]; concentration 1.95e-7 M): 0.2272 and 0.1839 and 0.1708 and 0.08379 and 0.0626 and 0.06306 | PRESTO-Tango response (fig. S1), single replicate ([2]; concentration 3.91e-7 M): 0.258 and 0.2297 and 0.204 and 0.07839 and 0.196 and 0.08224 | PRESTO-Tango response (fig. S1), single replicate ([2]; concentration 7.81e-7 M): 0.5296 and 0.4272 and 0.4321 and 0.1295 and 0.1604 and 0.1155 | PRESTO-Tango response (fig. S1), single replicate ([2]; concentration 1.56e-6 M): 1.193 and 1.025 and 0.8155 and 0.2489 and 0.1773 and 0.193 | PRESTO-Tango response (fig. S1), single replicate ([2]; concentration 3.13e-6 M): 2.598 and 2.433 and 2.514 and 0.4404 and 0.5024 and 0.4535 | PRESTO-Tango response (fig. S1), single replicate ([2]; concentration 6.25e-6 M): 5.285 and 4.4353 and 4.292 and 0.9622 and 0.8766 and 0.6627 | PRESTO-Tango response (fig. S1), single replicate ([2]; concentration 1.25e-5 M): 7.96 and 6.958 and 5.919 and 1.839 and 1.437 and 1.511 | PRESTO-Tango response (fig. S1), single replicate ([2]; concentration 2.5e-5 M): 10.7681 and 8.616 and 8.444 and 2.5381 and 2.199 and 2 | PRESTO-Tango response (fig. S1), single replicate ([2]; concentration 5e-5 M): 10.7109 and 8.966 and 9.235 and 2.8872 and 2.833 and 2.449 | PRESTO-Tango response (fig. S1), single replicate ([2]; concentration 0.0001 M): 9.427 and 8.942 and 7.727 and 3.267 and 2.882 and 2.338 | PRESTO-Tango response (fig. S1), single replicate ([2]; concentration 0.0002 M): 8.979 and 8.052 and 6.854 and 2.562 and 2.3992 and 2.255 | fig. S7 response (raw signal), concentration-response ([2]; 1.95e-7 M): 22724.6 and 18390.5 and 17083.6 and 8378.77 and 6259.78 and 6305.82 and 12291.8 and 11793.8 and 15486 | fig. S7 response (raw signal), concentration-response ([2]; 3.91e-7 M): 25803.9 and 22965.5 and 20401.3 and 7839.11 and 19602.9 and 8224.03 and 24524.9 and 14963.1 and 12930.4 | fig. S7 response (raw signal), concentration-response ([2]; 7.81e-7 M): 52955.5 and 42723 and 43213.9 and 12950.5 and 16037.6 and 11551.5 and 30971.1 and 30307.2 and 28437.7 | fig. S7 response (raw signal), concentration-response ([2]; 1.56e-6 M): 119282 and 102488 and 81549.3 and 24892.1 and 17734.6 and 19298.5 and 55751 and 73836.3 and 53034.5 | fig. S7 response (raw signal), concentration-response ([2]; 3.13e-6 M): 259763 and 243320 and 251368 and 44035.9 and 50243.2 and 45345.4 and 138332 and 159511 and 149195 | fig. S7 response (raw signal), concentration-response ([2]; 6.25e-6 M): 528451 and 443530 and 429228 and 96221.6 and 87656.1 and 66266.7 and 291383 and 234158 and 300136 | fig. S7 response (raw signal), concentration-response ([2]; 1.25e-5 M): 795954 and 695772 and 591944 and 183925 and 143683 and 151143 and 437126 and 336645 and 507439 | fig. S7 response (raw signal), concentration-response ([2]; 2.5e-5 M): 1076811 and 861577 and 844388 and 253810 and 219862 and 200044 and 648692 and 547623 and 531932 | fig. S7 response (raw signal), concentration-response ([2]; 5e-5 M): 1071085 and 896572 and 923510 and 288720 and 283304 and 244853 and 667677 and 558954 and 627391 | fig. S7 response (raw signal), concentration-response ([2]; 0.0001 M): 942731 and 894246 and 772701 and 326668 and 288202 and 233769 and 534832 and 581310 and 583017 | fig. S7 response (raw signal), concentration-response ([2]; 0.0002 M): 897926 and 805208 and 685441 and 256156 and 239920 and 225546 and 318639 and 44935 | EC50 ([3]; MRGPRX4 stably expressed HEK293 cells, calcium mobilization, read-out: EC50): 0.077 µM | calcium mobilization response (Fig. 1D dose-response raw data) ([3]; concentration 3.90625e-9 M): 21.206 and 25.291 and 2.769 and 3.958 and -8.2623 and 8.875 and 8.837 and 9.145 and 8.934 | calcium mobilization response (Fig. 1D dose-response raw data) ([3]; concentration 7.8125e-9 M): -14.542 and 13.805 and 7.794 and 12.8387 and 12.8087 and 12.5987 and 3.298 and 9.875 and 9.477 | calcium mobilization response (Fig. 1D dose-response raw data) ([3]; concentration 1.5625e-8 M): 19.866 and 22.527 and 5.041 and 1.449 and 6.253 and 14.7987 and -3.2365 and 13.5705 and -5.8765 | calcium mobilization response (Fig. 1D dose-response raw data) ([3]; concentration 3.125e-8 M): 57.235 and 30.337 and 81.497 and 17.5777 and 19.6667 and 31.6637 and -30.287 and 41.9265 and -1.7705 | calcium mobilization response (Fig. 1D dose-response raw data) ([3]; concentration 6.25e-8 M): 190.544 and 229.236 and 134.524 and 58.9937 and 67.8137 and 76.3827 and 88.4165 and 111.221 and 55.6105 | calcium mobilization response (Fig. 1D dose-response raw data) ([3]; concentration 1.25e-7 M): 316.003 and 301.004 and 304.213 and 117.536 and 116.768 and 79.1877 and 194.175 and 173.792 and 144.932 | calcium mobilization response (Fig. 1D dose-response raw data) ([3]; concentration 2.5e-7 M): 345.7 and 324.779 and 337.838 and 121.175 and 136.568 and 118.794 and 200.38 and 226.084 and 171.163 | calcium mobilization response (Fig. 1D dose-response raw data) ([3]; concentration 5e-7 M): 387.516 and 373.964 and 353.304 and 134.73 and 112.159 and 119.649 and 195.132 and 238.81 and 185.954 | calcium mobilization response (Fig. 1D dose-response raw data) ([3]; concentration 1e-6 M): 410.183 and 413.027 and 415.898 and 143.736 and 123.579 and 132.916 and 226.932 and 271.213 and 250.762 | calcium mobilization response (Fig. 1D dose-response raw data) ([3]; concentration 2e-6 M): 394.314 and 370.112 and 382.271 and 127.759 and 125.948 and 138.324 and 218.164 and 295.676 and 255.523 | Hill coefficient ([3]; dose-response curve fitting, table S1): 1.917 | PRESTO-Tango response (fig. S1), single replicate ([4]; concentration 3.91e-6 M): 0.004928 and 0.004598 and 0.01112 and 0.01116 and 0.003197 and 0.004271 | PRESTO-Tango response (fig. S1), single replicate ([4]; concentration 7.81e-6 M): 0.007499 and 0.005683 and 0.007727 and 0.01002 and 0.00431 and 0.008159 | PRESTO-Tango response (fig. S1), single replicate ([4]; concentration 1.56e-5 M): 0.004669 and 0.01023 and 0.009474 and 0.01705 and 0.007507 and 0.01409 | PRESTO-Tango response (fig. S1), single replicate ([4]; concentration 3.13e-5 M): 0.006626 and 0.01061 and 0.0114 and 0.01987 and 0.004604 and 0.008542 | PRESTO-Tango response (fig. S1), single replicate ([4]; concentration 6.25e-5 M): 0.01361 and 0.01504 and 0.01581 and 0.04311 and 0.006432 and 0.0129 | PRESTO-Tango response (fig. S1), single replicate ([4]; concentration 0.00025 M): 0.01688 and 0.03926 and 0.02383 and 0.08171 and 0.008888 and 0.02076 | PRESTO-Tango response (fig. S1), single replicate ([4]; concentration 0.0005 M): 0.0416 and 0.04542 and 0.03124 and 0.09673 and 0.01269 and 0.03191 | PRESTO-Tango response (fig. S1), single replicate ([4]; concentration 0.001 M): 0.01837 and 0.05513 and 0.03077 and 0.1069 and 0.01168 and 0.03953 | PRESTO-Tango response (fig. S1), single replicate ([4]; concentration 0.002 M): 0.01971 and 0.05409 and 0.03051 and 0.1054 and 0.01079 and 0.03852 | PRESTO-Tango response (fig. S1), single replicate ([4]; concentration 0.004 M): 0.01886 and 0.05018 and 0.02929 and 0.08185 and 0.01164 and 0.032 | Scratching / itch behavior, NP2-X4+ mice vs WT littermates ([5]; 50 μl 10 mM nape injection, 30 min): significantly increased scratching behavior | Scratching bouts of individual animals ([5]; NP2-X4+, 30 min after injection of 50 μl 10 mM into the nape, each cell one mouse): 32 and 55 and 37 and 89 and 49 and 39 and 73 and 83 and 25 and 94
